Reference: patent US6492174B1, “Methods of initiating embryogenic cultures in plants” (Institute of Paper Science & Technology, priority 2000, dated 2002)

Legend:
[1] = test system: Loblolly pine megagametophytes; assay: Vacuum infiltration of abscisic acid solutions (liquid media #1036) before culture on solid media #1042, eight weeks; assay type: cell-based
Text: In this experiment the effects of megagametophyte pre-treatment by vacuum infiltration with abscisic acid solutions of varying concentration was investigated. The explants were megagametophytes from summer cones of four open pollinated individual trees, representing multiplicity of genotypes. The seeds contained Stage 2-4 zygotic embryos. Megagametophytes were excised from sterilized seeds, as described in Example 4.
Prior to culturing, the megagametophytes were vacuum infiltrated with liquid growth media #1036 (see Table 47) containing 0, 1, 5, or 25 ppm abscisic acid (See Table 19 for treatment media compositions). After vacuum infiltration, each megagametophyte was placed on 2 ml solid culture media #1042 (see Table 47 for composition) in a single well on a culture well plate.
One possible explanation for the results is that vacuum treatment may damage the megagametophytes.

[2] = test system: Pinus embryogenic cultures; details: solid initiation media containing 30-90 mg/l ABA; cited from earlier work
[3] = test system: cultured cells of Onosma paniculatum; details: media containing 0.01 ppb brassinolide; cited from earlier work
[4] = genotype 5-1207, treatment 2, 1 ppm abscisic acid
[5] = genotype 5-1207, treatment 3, 5 ppm abscisic acid
[6] = genotype 5-1207, treatment 4, 25 ppm abscisic acid
[7] = genotype 7-1051, treatment 2, 1 ppm abscisic acid
[8] = genotype 7-1051, treatment 3, 5 ppm abscisic acid
[9] = genotype 7-1051, treatment 4, 25 ppm abscisic acid
[10] = genotype 11-1055, treatment 2, 1 ppm abscisic acid
[11] = genotype 11-1055, treatment 3, 5 ppm abscisic acid
[12] = genotype 11-1055, treatment 4, 25 ppm abscisic acid
[13] = genotype 11-1507, treatment 2, 1 ppm abscisic acid
[14] = genotype 11-1507, treatment 3, 5 ppm abscisic acid
[15] = genotype 11-1507, treatment 4, 25 ppm abscisic acid
[16] = total, treatment 2, 1 ppm abscisic acid
[17] = total, treatment 3, 5 ppm abscisic acid
[18] = total, treatment 4, 25 ppm abscisic acid

## CC1=CC(=O)CC(C)(C)C1(O)/C=C/C(C)=C\C(=O)O (stereo not drawn) [ABA, 5-(1-hydroxy-2,6,6,-trimethyl-4-oxo-2-cyclohexen-1-yl)-3-methyl-2,4-penta dienoic acid]
[1]; [4]
  % of Megagametophytes Extruding: 23.3 (14.5) %
  % of Megagametophytes Initiating: 20 (11.5) %
[1]; [5]
  % of Megagametophytes Extruding: 10.0 (5.8) %
  % of Megagametophytes Initiating: 10 (5.8) %
[1]; [6]
  % of Megagametophytes Extruding: 13.3 (13.3) %
  % of Megagametophytes Initiating: 10 (10.0) %
[1]; [7]
  % of Megagametophytes Extruding: 33.3 (8.8) %
  % of Megagametophytes Initiating: 6.7 (3.3) %
[1]; [8]
  % of Megagametophytes Extruding: 30.0 (11.5) %
  % of Megagametophytes Initiating: 10 (5.8) %
[1]; [9]
  % of Megagametophytes Extruding: 56.7 (12.0) %
  % of Megagametophytes Initiating: 13.3 (8.8) %
[1]; [10]
  % of Megagametophytes Extruding: 53.3 (3.3) %
  % of Megagametophytes Initiating: 16.7 (3.3) %
[1]; [11]
  % of Megagametophytes Extruding: 66.7 (12.0) %
  % of Megagametophytes Initiating: 30 (11.5) %
[1]; [12]
  % of Megagametophytes Extruding: 36.7 (3.3) %
  % of Megagametophytes Initiating: 13.3 (3.3) %
[1]; [13]
  % of Megagametophytes Extruding: 16.7 (6.7) %
  % of Megagametophytes Initiating: 6.7 (6.7) %
[1]; [14]
  % of Megagametophytes Extruding: 6.7 (3.3) %
  % of Megagametophytes Initiating: 6.7 (3.3) %
[1]; [15]
  % of Megagametophytes Extruding: 6.7 (3.3) %
  % of Megagametophytes Initiating: 0 (0.0) %
[1]; [16]
  % of Megagametophytes Extruding: 31.7%
  % of Megagametophytes Initiating: 12.5%
[1]; [17]
  % of Megagametophytes Extruding: 28.4%
  % of Megagametophytes Initiating: 14.2%
[1]; [18]
  % of Megagametophytes Extruding: 28.4%
  % of Megagametophytes Initiating: 9.2%
[1]; vacuum infiltration, 1, 5 or 25 ppm
  promotion of extrusion or initiation: did not promote extrusion or initiation
[2]
  initiation frequencies: 30-38%

## CC(C)[C@H](C)[C@@H](O)[C@H](O)[C@@H](C)[C@H]1CC[C@H]2[C@@H]3COC(=O)[C@H]4C[C@H](O)[C@H](O)C[C@]4(C)[C@H]3CC[C@]12C [brassinolide]
[3]
  growth of cultured cells: slightly increased growth
